Tests used:
[1] = target: T1, Fructose-1,6-bisphosphatase 1 (Homo sapiens, UniProt P09467); test: Inhibition of wild-type full-length human liver FBPase expressed in Escherichia coli BL21 (DE3) using FBP as substrate by malachite green dye based assay; type: tissue-based
T1 sequence (P09467 whole entry): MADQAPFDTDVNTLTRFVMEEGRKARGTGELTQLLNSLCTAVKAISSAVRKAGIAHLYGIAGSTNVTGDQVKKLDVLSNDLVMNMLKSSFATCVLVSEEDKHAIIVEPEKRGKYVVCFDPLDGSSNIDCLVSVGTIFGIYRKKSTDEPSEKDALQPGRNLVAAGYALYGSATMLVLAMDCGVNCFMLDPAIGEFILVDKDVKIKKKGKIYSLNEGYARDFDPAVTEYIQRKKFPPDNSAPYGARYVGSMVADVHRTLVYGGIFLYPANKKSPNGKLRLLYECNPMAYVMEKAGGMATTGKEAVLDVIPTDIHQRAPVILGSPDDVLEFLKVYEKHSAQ

HepG2 = test: Cytotoxicity against human HepG2 cells assessed as reduction in cell viability measured after 48 hrs by cell counting kit-8 assay; type: functional, cell-based; details: HepG2, 48 h
Mus musculus [2] = test: Glucose lowering activity in 12 hrs fasting normoglycemic ICR mouse assessed as reduction in blood glucose level at 25 mg/kg, ip measured upto 8 hrs by glucometer; type: functional; details: time hrs <=8
[3] = Inhibition of gluconeogenesis in C57BLKS mouse primary hepatocytes assessed as inhibition of glucose output at 100 umol/L measured after 6 hrs relative to control; type: functional; details: Hepatocyte, dose 100 µmol/L
Hepatocyte = test: Cytotoxicity against mouse primary hepatocytes assessed as reduction in cell viability measured after 6 hrs by SRB assay; type: cell-based
[4] = In vivo inhibition of FBPase activity in 12 hrs fasted ICR mouse liver assessed as reduction in blood glucose level at 25 mg/kg, ip administered for 4 hrs and measured after 4 hrs; type: functional; details: time 8 hrs
Mus musculus [5] = test: Hypoglycemic activity in 2 hrs fasted ICR mouse model assessed as reduction in blood glucose AUC (0 to 120 mins) at 25 mg/kg, ip pretreated for 60 mins followed by glucose challenge and measured up to 120 mins by oral glucose tolerance test; type: functional; details: 3 h, time 180 min
Mus musculus [6] = test: Suppression of blood glucose concentration in 12 hrs fasted db/db mouse model at 25 mg/kg, ip measured upto 120 mins after oral administration of glucose at 2 g/kg for 60 min by oral glucose tolerance test; type: functional
Mus musculus [7] = test: Hypoglycemic activity in 2 hrs fasted ICR mouse model assessed as reduction in blood glucose AUC (0 to 120 mins) at 12.5 mg/kg, ip pretreated for 60 mins followed by glucose challenge and measured up to 120 mins by oral glucose tolerance test; type: functional; details: 3 h, time 180 min
[8] = Toxicity in intraperitonially dosed ICR mouse at high dose by long-term safety study; type: organism-based; details: in vivo, ip
[9] = Toxicity in intraperitonially dosed db/db mouse at high dose by long-term safety study; type: organism-based; details: in vivo, ip
[10] = target: T1, Fructose-1,6-bisphosphatase 1; test: Covalent inhibition of FBPase WT (unknown origin) measured 15 to 45 mins by UV-visible spectrometry analysis
[11] = target: Fructose-1,6-bisphosphatase 1 (Homo sapiens, UniProt P09467, C39S); test: Covalent inhibition of FBPase C38S mutant (unknown origin) measured upto 45 mins by UV-visible spectrometry analysis
Chain of Fructose-1,6-bisphosphatase 1 (Homo sapiens, UniProt P09467, C39S) (P09467 2-338 C39S limits assumed): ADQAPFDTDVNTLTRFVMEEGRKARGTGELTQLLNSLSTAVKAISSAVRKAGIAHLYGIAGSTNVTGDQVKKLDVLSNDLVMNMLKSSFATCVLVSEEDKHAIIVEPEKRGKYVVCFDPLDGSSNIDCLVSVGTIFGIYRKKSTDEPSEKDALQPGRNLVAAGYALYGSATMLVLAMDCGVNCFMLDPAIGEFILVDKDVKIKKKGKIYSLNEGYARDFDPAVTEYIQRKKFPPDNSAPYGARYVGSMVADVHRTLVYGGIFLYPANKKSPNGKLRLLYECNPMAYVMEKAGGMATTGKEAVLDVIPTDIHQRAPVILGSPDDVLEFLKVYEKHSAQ

[12] = target: Fructose-1,6-bisphosphatase 1 (Homo sapiens, UniProt P09467, C93S); test: Covalent inhibition of FBPase C92S mutant (unknown origin) measured upto 45 mins by UV-visible spectrometry analysis
Chain of Fructose-1,6-bisphosphatase 1 (Homo sapiens, UniProt P09467, C93S) (P09467 2-338 C93S limits assumed): as the sequence (P09467 2-338 C39S limits assumed) above, with S38C, C92S counted along it

[13] = target: Fructose-1,6-bisphosphatase 1 (Homo sapiens, UniProt P09467, C117S); test: Covalent inhibition of FBPase C116S mutant (unknown origin) measured upto 45 mins by UV-visible spectrometry analysis
Chain of Fructose-1,6-bisphosphatase 1 (Homo sapiens, UniProt P09467, C117S) (P09467 2-338 C117S limits assumed): as the sequence (P09467 2-338 C39S limits assumed) above, with S38C, C116S counted along it

[14] = target: Fructose-1,6-bisphosphatase 1 (Homo sapiens, UniProt P09467, C129S); test: Covalent inhibition of FBPase C128S mutant (unknown origin) measured upto 45 mins by UV-visible spectrometry analysis
Chain of Fructose-1,6-bisphosphatase 1 (Homo sapiens, UniProt P09467, C129S) (P09467 2-338 C129S limits assumed): as the sequence (P09467 2-338 C39S limits assumed) above, with S38C, C128S counted along it

[15] = target: Fructose-1,6-bisphosphatase 1 (Homo sapiens, UniProt P09467, C180S); test: Covalent inhibition of FBPase C179S mutant (unknown origin) measured upto 45 mins by UV-visible spectrometry analysis
Chain of Fructose-1,6-bisphosphatase 1 (Homo sapiens, UniProt P09467, C180S) (P09467 2-338 C180S limits assumed): as the sequence (P09467 2-338 C39S limits assumed) above, with S38C, C179S counted along it

[16] = target: Fructose-1,6-bisphosphatase 1 (Homo sapiens, UniProt P09467, C282S); test: Covalent inhibition of FBPase C281S mutant (unknown origin) measured upto 45 mins by UV-visible spectrometry analysis
Chain of Fructose-1,6-bisphosphatase 1 (Homo sapiens, UniProt P09467, C282S) (P09467 2-338 C282S limits assumed): as the sequence (P09467 2-338 C39S limits assumed) above, with S38C, C281S counted along it

[17] = target: Fructose-1,6-bisphosphatase 1 (Homo sapiens, UniProt P09467, S125A); test: Covalent inhibition of FBPase S124A mutant (unknown origin) measured upto 45 mins by UV-visible spectrometry analysis
Chain of Fructose-1,6-bisphosphatase 1 (Homo sapiens, UniProt P09467, S125A) (P09467 2-338 S125A limits assumed): as the sequence (P09467 2-338 C39S limits assumed) above, with S38C, S124A counted along it

[18] = target: Fructose-1,6-bisphosphatase 1 (Homo sapiens, UniProt P09467, N126A); test: Covalent inhibition of FBPase N125A mutant (unknown origin) measured upto 45 mins by UV-visible spectrometry analysis
Chain of Fructose-1,6-bisphosphatase 1 (Homo sapiens, UniProt P09467, N126A) (P09467 2-338 N126A limits assumed): as the sequence (P09467 2-338 C39S limits assumed) above, with S38C, N125A counted along it

[19] = target: Fructose-1,6-bisphosphatase 1 (Homo sapiens, UniProt P09467, D128A); test: Covalent inhibition of FBPase D127A mutant (unknown origin) measured upto 45 mins by UV-visible spectrometry analysis
Chain of Fructose-1,6-bisphosphatase 1 (Homo sapiens, UniProt P09467, D128A) (P09467 2-338 D128A limits assumed): as the sequence (P09467 2-338 C39S limits assumed) above, with S38C, D127A counted along it

[20] = target: T1, Fructose-1,6-bisphosphatase 1; test: Covalent inhibition of FBPase R243A mutant (unknown origin) measured upto 45 mins by UV-visible spectrometry analysis
[21] = target: Fructose-1,6-bisphosphatase 1 (Homo sapiens, UniProt P09467, R255A); test: Covalent inhibition of FBPase R254A mutant (unknown origin) measured upto 45 mins by UV-visible spectrometry analysis
Chain of Fructose-1,6-bisphosphatase 1 (Homo sapiens, UniProt P09467, R255A) (P09467 2-338 R255A limits assumed): as the sequence (P09467 2-338 C39S limits assumed) above, with S38C, R254A counted along it

[22] = target: Fructose-1,6-bisphosphatase 1 (Homo sapiens, UniProt P09467, Y259A); test: Covalent inhibition of FBPase Y258A mutant (unknown origin) measured upto 45 mins by UV-visible spectrometry analysis
Chain of Fructose-1,6-bisphosphatase 1 (Homo sapiens, UniProt P09467, Y259A) (P09467 2-338 Y259A limits assumed): as the sequence (P09467 2-338 C39S limits assumed) above, with S38C, Y258A counted along it

Mus musculus [23] = test: Glucose lowering activity in 12 hrs fasting normoglycemic ICR mouse assessed as time for maximum blood glucose reduction at 25 to 50 mg/kg, ip by glucometer; type: functional; details: dose 25-50 mg/kg
[24] = target: T1, Fructose-1,6-bisphosphatase 1; test: Covalent inhibition of FBPase WT (unknown origin) measured for 45 mins by UV-visible spectrometry analysis

SMILES: c1csc(SSc2nccs2)n1
- IC50 [1]: 0.22 µM
- IC50 (HepG2): 75.1 µM
- inhibition in vivo at 25 mg/kg (Mus musculus [2]): 26%
- inhibition at 100 µM [3]: 90%
- Activity (Hepatocyte): Non-Toxic
- inhibition in vivo at 25 mg/kg [4]: 57%
- inhibition in vivo at 25 mg/kg (Mus musculus [5]): 22.7%
- inhibition in vivo at 25 mg/kg (Mus musculus [6]): 10.4%
- inhibition in vivo at 12.5 mg/kg (Mus musculus [7]): 24.5%
- Activity [8]: Toxic
- Activity [9]: Toxic
- IC50 [10]: 0.27 µM
- IC50 [11]: 0.31 µM
- IC50 [12]: 0.13 µM
- IC50 [13]: 0.19 µM
- IC50 [14]: > 500 µM
- IC50 [15]: 0.16 µM
- IC50 [16]: 0.18 µM
- IC50 [17]: 0.46 µM
- IC50 [18]: > 250 µM
- IC50 [19]: 0.18 µM
- IC50 [20]: 0.27 µM
- IC50 [21]: 0.63 µM
- IC50 [22]: 3.1 µM
- Time (Mus musculus [23]): 4 h
- IC50 [24]: 0.09 µM
